Results as given in paper PMC3734285, “Expression and Function of the Lipocalin-2 (24p3/NGAL) Receptor in Rodent and Human Intestinal Epithelia” (PLoS ONE, 2013).
pKd: −log10 of the molar value. Like-named read-outs stand apart in the source and are kept apart here. Numbered stars: 1 amine (or outer) side, 2 acyl side, 3 side chain; on linkers, the order of the positions; unused ones are H or OH. Square brackets hold non-standard residues; d marks the D form. Peptide text beside a SMILES is read from it. * marks the point of attachment. X1 = N=c1ccc2c(-c3ccc(C(=O)*)cc3C(=O)O)c3ccc(N)c(S(=O)(=O)O)c3oc-2c1S(=O)(=O)O; γGlu = O=C(O)[C@H](CCC(=O)[*:2])N[*:1]

Experiments:
[1] = tested on: colon-like Caco-2 BBE cells; assay: Internalization of fluorescence-labelled ligands, immunofluorescence microscopy; format: cell-based, human; details: for pKd: 24 h, up to 5.6 µM A488-PC3, FBS-free medium, 5-6 experiments
Experimental: The full-length clone of rat r24p3-R was transiently transfected into CHO cells 24 h after seeding using Lipofectamine 2000, as described previously. Forty eight hours after transfection, r24p3-R- and empty vector (pcDNA3.1)-transfected cells were incubated for 24 h with 0-2.8 µM A488-PC3, as described previously for A546-MT [24]. Colon- or duodenum-like Caco-2 BBE cells were seeded at a density of 50,000 cells/coverslip and grown for 48 h before addition of different concentrations of A488-PC3 or A546-MT ± hNGAL for 24 h in FBS-free medium. Cells were stained with primary α-NT-24p3-R antibody (1:100) and secondary Cy3-coupled anti-rabbit IgG (1:600) for A488-PC3 uptake or with A546-conjugated anti-rabbit IgG (1:600) for A546-MT uptake.
For each experiment, 5-10 images were acquired and quantified as described earlier. For determination of r24p3-R-dependent fluorescence uptake in CHO cells, values in vector-transfected cells were subtracted from values obtained in the corresponding r24p3-R-transfected cells. […] To determine hNGAL-R-specific uptake of fluorescent dye-labeled proteins in Caco-2 BBE cells 5 images of fields with clusters of hNGAL-R expressing Caco-2 BBE cells and 5 images of clusters of Caco-2 BBE cells not expressing hNGAL-R were analyzed in the absence or presence of the ligand of the hNGAL-R, hNGAL/lipocalin-2 (500 pM).
Unless otherwise indicated, the experiments were repeated at least three times and means ± S.D. were calculated, unless otherwise indicated. Analysis by unpaired Student’s t test or one-way ANOVA assuming equality of variance with Newman-Keuls Multiple Comparison test and Dunnett’s post-hoc test was performed with GraphPad Prism 5.0. […] Transcytosis data fitted using a one-phase exponential decay function. All curve fits were done with GraphPad Prism 5.0. Results with P < 0.05 were considered to be statistically significant.

[2] = tested on: colon-like Caco-2 BBE cell monolayers; assay: Apical-to-basolateral transcytosis of fluorescence-labelled ligands across Transwell monolayers; format: in vitro ADME, human; details: colon-like Caco-2 BBE monolayers on Transwell, A-B, 700 nM ligand apical, control conditions (no hNGAL), fluorescence read-out; means ± SEM, n = 9-14
Experimental: For transyctosis studies Costar Transwell® culture inserts placed on 24-well plates were used (0.4 µM PE membrane, 0.33 cm^2 filter area. Corning Inc., Corning, NY, USA). Briefly, 1.3 ml of Caco-2 BBE medium with 10% FBS was added to the basolateral compartment and Caco-2 BBE colon-like cells were plated at a density of 5 x 10^4 cells/insert in 400 µl medium with 10% FBS added to the apical compartment. The transepithelial electrical resistance (TEER) across the cell monolayer was measured after 0, 24, 48, 72 h culture as well as before and after each experiment. The medium was replaced after 48 h on both, top (apical) and bottom (basolateral) compartments of the culture inserts. […] Before each experiment, the apical medium was replaced by 400 µl medium containing 1% FBS medium and the appropriate fluorescence-labelled ligand at a final concentration of 700 nM with or without 500 pM hNGAL whereas the basolateral medium with 10% FBS remained unchanged. At each experimental time point, 10 µl of the basolateral and the apical medium was removed, frozen at -80° C and subsequently analyzed for fluorescence intensity using standard capillaries in a Monolith NT.015 (NanoTemper Technologies GmbH, Munich, Germany). Data were quantified by semi-logarithmic plotting against standards obtained from stock solutions of fluorescent ligands. […]

Row | Compound | pKd ([1]; read-out: first app KD of A488-PC3 internalization (two-site binding fit)) | pKd ([1]; read-out: second app KD of A488-PC3 internalization (two-site binding fit)) | effect of 500 pM hNGAL on uptake of 0.7 µM ligand ([1]; 24 h incubation, 0.7 µM ligand with 500 pM hNGAL, 4-5 experiments) | basolateral delivery (AUC over 8 h) [2] [nM x 8 h]
1 | N=c1ccc2c(-c3ccc(C(=O)N[C@@H](CCC(=O)N[C@@H](CS)C(=O)N[C@@H](CCC(=O)N[C@@H](CS)C(=O)N[C@@H](CCC(=O)N[C@@H](CS)C(=O)NCC(=O)O)C(=O)O)C(=O)O)C(=O)O)cc3C(=O)O)c3ccc(N)c(S(=O)(=O)O)c3oc-2c1S(=O)(=O)O [A488-PC3] ({X1-γGlu}-C[γGlu]C[γGlu]CG-OH; N-terminus and C-terminus assumed) | ~7.05 | ~6.52 | significantly reduced | 299.4 ± 18.7
2 | A546-Tf: Alexa Fluor 546-labelled transferrin from human serum (Molecular Probes) |  |  |  | 402.4 ± 28.0
